We go through 4 molecules from patent EP1590666B1, “COMPOSITIONS AND METHODS FOR ENHANCING APOPTOSIS” (GENENTECH, INC., priority 2003, dated 2004).

One data set has as its target T1, XIAP-BIR2 (Homo sapiens, UniProt P98170, C202A/C213G).
T1 construct: X-IAP BIR2 (amino acid residues 124-240 with mutations C202A and C213G); made in house; host or cells: Escherichia coli BL21 (DE3)
In words: fluorescence polarization-based competition assay. The data set is classed as binding. The following applies: Table 3, positional scanning. Here is the method:
(§1) The apparent Kd values can be determined from the EC50 values.
(§2) The apparent Kd values were determined from the EC50 values. […] Samples were read after a 10-minute incubation.
Background: In fluorescence polarisation assays a small probe gives low polarisation when free and higher when bound to something large.

For a further data set, the target named is T2, ML-IAP-BIR (Homo sapiens, UniProt Q96CA5).
T2 construct: made in house; host or cells: Escherichia coli BL21 (DE3)
T2 sequence (Q96CA5 63-179): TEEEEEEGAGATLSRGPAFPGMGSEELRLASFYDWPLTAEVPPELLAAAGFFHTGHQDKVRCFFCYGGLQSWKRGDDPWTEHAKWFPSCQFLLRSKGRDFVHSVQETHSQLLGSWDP
In words: fluorescence polarization-based competition assay. It counts as binding. Here is the method:
as §1, §2

In another data set the target is XIAP-BIR3 (Homo sapiens, UniProt P98170). The experiment in a line: fluorescence polarization-based competition assay. The data set is classed as binding. Also noted: X-IAP BIR3 (amino acids residues 241-356); made in house; host or cells: Escherichia coli BL21 (DE3). Here is the method:
as §1, §2

Data set [1] deals with the molecule itself. In words: crystal structure, self-association.

XIAP-BIR3, sequence (P98170 241-356): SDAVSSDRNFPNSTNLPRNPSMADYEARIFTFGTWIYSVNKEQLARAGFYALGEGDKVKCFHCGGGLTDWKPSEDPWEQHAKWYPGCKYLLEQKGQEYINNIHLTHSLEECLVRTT
T1 sequence (P98170 124-240 C202A/C213G): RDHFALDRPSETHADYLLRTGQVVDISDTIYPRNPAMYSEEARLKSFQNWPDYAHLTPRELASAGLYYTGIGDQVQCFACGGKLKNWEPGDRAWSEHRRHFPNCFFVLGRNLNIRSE

`CC(C)[C@H](NC(=O)[C@H](C)N)C(=O)N1CCC[C@H]1C(=O)N[C@@H](CC1CCCC1)C(=O)N[C@@H](C)C(=O)N[C@@H](CCC(N)=O)C(=O)N[C@@H](CCCCN)C(=O)N[C@@H](CO)C(=O)N[C@@H](CCC(=O)O)C(=O)O` [AVPX7AQKSE]: the Ki (as a rule, a dissociation constant, usually derived from enzyme kinetics or from competition with a known ligand) was found to be 229 µM on XIAP-BIR2 and 7.9 µM at ML-IAP-BIR.

Consider `CC(C)[C@H](NC(=O)[C@H](C)N)C(=O)N1CCC[C@H]1C(=O)N[C@@H](Cc1ccc(I)cc1)C(=O)N[C@@H](C)C(=O)N[C@@H](CCC(N)=O)C(=O)N[C@@H](CCCCN)C(=O)N[C@@H](CO)C(=O)N[C@@H](CCC(=O)O)C(=O)O` [AVPX10AQKSE], for which the Ki on XIAP-BIR3 is 1 µM; on XIAP-BIR2, 27.7 µM; on ML-IAP-BIR it was 0.45 µM.

In turn, `CC(C)[C@H](NC(=O)[C@H](C)N)C(=O)N1CCC[C@H]1C(=O)N[C@@H](Cc1ccc(S(=O)(=O)O)cc1)C(=O)N[C@@H](C)C(=O)N[C@@H](CCC(N)=O)C(=O)N[C@@H](CCCCN)C(=O)N[C@@H](CO)C(=O)N[C@@H](CCC(=O)O)C(=O)O` [AVPX2AQKSE] yielded an inhibition constant (Ki) at XIAP-BIR3 of 8.5 µM.

B1: ML-IAP-BIR (other, human, UniProt Q96CA5 63-179, looked up)
chain: T2 sequence (Q96CA5 63-179)
notes: range 63-179; Expressed in E. coli BL21(DE3) from pET15b-MLIAPBIR; also called BIR domain of ML-IAP; not shown: possible N-terminal tag from the pET15b vector (purified on Ni-agarose)
With B1, the binding result in data set [1] is reported as “binds”.
